{"source": "patent US9079854B2", "about": "(priority 2007, dated 2015)", "key": {"[1]": {"molecular_target": "T1, human CB1 (hCB1) receptor (Homo sapiens, UniProt P21554)", "T1 construct": "expressed in transfected cells; host or cells: CHO (Chinese hamster ovary) cells, membranes", "T1 sequence (P21554 whole entry)": "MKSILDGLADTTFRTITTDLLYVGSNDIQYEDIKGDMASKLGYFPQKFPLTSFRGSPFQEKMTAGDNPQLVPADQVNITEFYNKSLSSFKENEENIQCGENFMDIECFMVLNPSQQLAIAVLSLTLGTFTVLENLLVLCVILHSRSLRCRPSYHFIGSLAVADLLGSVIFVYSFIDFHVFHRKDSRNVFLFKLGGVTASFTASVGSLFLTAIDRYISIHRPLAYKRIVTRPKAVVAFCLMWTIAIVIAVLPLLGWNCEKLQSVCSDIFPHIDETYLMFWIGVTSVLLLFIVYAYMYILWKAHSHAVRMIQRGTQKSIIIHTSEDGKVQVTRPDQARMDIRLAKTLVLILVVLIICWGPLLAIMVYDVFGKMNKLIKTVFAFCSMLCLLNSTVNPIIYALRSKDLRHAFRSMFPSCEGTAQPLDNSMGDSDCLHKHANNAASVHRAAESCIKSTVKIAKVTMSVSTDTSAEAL", "experiment": "CB1 binding assay, competitive binding of [3H]CP 55940", "set-up": "% Inhibition of Control Specific Binding CB1: concentration or dose not given beside the values", "procedure,_shortened": "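CHO cell membranes expressing human CB1 (25 μg protein) incubated 120 min at 37 °C with 0.5 nM [3H]CP 55940 in Tris-HCl pH 7.4 buffer with MgCl2, EDTA, 0.3% BSA. Filtration and scintillation counting; compound tested at 1 μM, given as percent inhibition of control specific binding.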"}, "[2]": {"molecular_target": "T2, human CB2 (hCB2) receptor (Homo sapiens, UniProt P34972)", "T2 construct": "expressed in transfected cells; host or cells: CHO (Chinese hamster ovary) cells, membranes", "T2 sequence (P34972 whole entry)": "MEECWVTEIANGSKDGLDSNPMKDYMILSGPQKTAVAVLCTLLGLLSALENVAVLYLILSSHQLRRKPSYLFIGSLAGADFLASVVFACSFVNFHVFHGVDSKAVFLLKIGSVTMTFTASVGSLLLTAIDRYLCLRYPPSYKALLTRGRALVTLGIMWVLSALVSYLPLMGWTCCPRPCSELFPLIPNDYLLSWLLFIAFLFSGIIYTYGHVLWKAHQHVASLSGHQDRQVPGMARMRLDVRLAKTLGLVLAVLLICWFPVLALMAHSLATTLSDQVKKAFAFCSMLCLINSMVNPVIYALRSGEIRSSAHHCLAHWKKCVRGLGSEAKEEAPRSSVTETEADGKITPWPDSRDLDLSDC", "experiment": "CB2 binding assay, competitive binding of [3H]WIN 55212-2", "procedure,_shortened": "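CHO cell membranes expressing hCB2 (15 μg protein) incubated 120 min at 37° C with 0.8 nM [3H]WIN 55212-2 in 50 mM HEPES/Tris pH 7.4, 5 mM MgCl2, 2.5 mM EGTA, 0.1% BSA; nonspecific binding with 10 μM WIN 55212-2. Filtration and scintillation counting; compounds at 1 μM, reported as % inhibition of control specific binding.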"}, "hCB2 receptor": {"molecular_target": "T3, hCB2 receptor (Homo sapiens, UniProt P34972)", "T3 construct": "purchased ES-111-MG; host or cells: CHO membrane extracts", "T3 sequence (P34972 whole entry)": "as above", "experiment": "CB2 functional assay, [35S]GTP-γ-S binding", "format": "biochemical"}, "exploratory behavior": {"system": "exploratory behavior", "experiment": "Open field chamber testing", "format": "in vivo, rat", "conditions": "15 mg/kg i.p.; versus vehicle; scored for 60 minutes; rats", "description": "The automated open-field chamber (Med Associates ENV-515 Test Environment, St. Albans, Vt.) 43.2×43.2×30.5 cm (L×W×H) equipped with three pairs of 16 infrared arrays that continually monitored the animal's movement was used to determine potential CNS effects of compound of Example 6 and the vehicle in naïve rats. Rats were individually tested 15 min after i.p. drug administration. The infrared beams were set 2.5 cm apart horizontally and at a height of 3 cm above the floor, with the rearing array set at 12 cm from the floor. The area in the box was divided into 4 equal quadrants (zones), with data collected within each quadrant and across quadrants (zone entries). An ambulatory movement was defined as a motion of at least 5 cm and was coded by quadrant. Vertical movements were counted when the rat moved vertically a minimum of 12 cm from the floor. Zone entries were defined as an entry into a zone (from another zone). Entry into a zone was counted when the rat was far enough into the zone to break 2 sets of photoelectric beams for the new zone beams during an ambulatory movement."}, "CB1": {"molecular_target": "CB1 (Homo sapiens, UniProt P21554)", "sequence (P21554 whole entry)": "as the sequence (P21554 whole entry) above", "experiment": "CB1 functional assay, [35S]GTP-γ-S binding", "format": "biochemical", "set-up": "purchased ES-110-MG; host or cells: CHO membrane extracts"}, "[3]": {"conditions": "Table 7, relative to the efficacy of CP55940"}, "[4]": {"conditions": "Table 9, relative to the efficacy of CP 55,940"}}, "note": "Entries after “also recorded” stand apart in the source; their conditions may differ. Like-named read-outs stand apart in the source and are kept apart here.", "data": [{"smiles": "CCCCCCN1C(=O)/C(=N\\NC(=O)c2ccccc2)c2ccccc21", "note": "[Example 6, Benzoic acid [1-n-hexyl-2-oxo-1,2-dihydro-indol-3-ylidene]-hydrazide]", "values": [{"measurement": "% Inhibition of Control Specific Binding", "setting": "[1]; CB1, Test Concentration 1.0E−05 (MD)", "result": 96, "unit": "%"}, {"measurement": "% of Control Specific Binding 1st", "setting": "[1]; CB1, Test Concentration 1.0E−05 (MD), 1st determination", "result": 4.5, "unit": "%"}, {"measurement": "% of Control Specific Binding 2nd", "setting": "[1]; CB1, Test Concentration 1.0E−05 (MD), 2nd determination", "result": 4.5, "unit": "%"}, {"measurement": "% of Control Specific Binding Mean", "setting": "[1]; CB1, Test Concentration 1.0E−05 (MD), mean", "result": 4.5, "unit": "%"}, {"measurement": "% Inhibition of Control Specific Binding CB1", "setting": "[1]; Table 3, concentration not given", "result": 96, "unit": "%"}, {"measurement": "inhibition at 1 µM", "setting": "[1]; at 1 μM, specific binding of [3H]-CP55940, CHO membranes", "result": 95.5, "unit": "%"}, {"measurement": "inhibition at 10 µM", "setting": "[1]; at 10 μM, specific binding of [3H]-CP55940", "result": 95.5, "unit": "%"}, {"measurement": "% Inhibition of Control Specific Binding", "setting": "[2]; CB2, Test Concentration 1.0E−05 (MD)", "result": 93, "unit": "%"}, {"measurement": "% of Control Specific Binding 1st", "setting": "[2]; CB2, Test Concentration 1.0E−05 (MD), 1st determination", "result": "−1.5", "unit": "%"}, {"measurement": "% of Control Specific Binding 2nd", "setting": "[2]; CB2, Test Concentration 1.0E−05 (MD), 2nd determination", "result": 15.9, "unit": "%"}, {"measurement": "% of Control Specific Binding Mean", "setting": "[2]; CB2, Test Concentration 1.0E−05 (MD), mean", "result": 7.2, "unit": "%"}, {"measurement": "% Inhibition of Control Specific Binding CB2", "setting": "[2]; Table 4, concentration not given", "result": 93, "unit": "%"}, {"measurement": "inhibition at 1 µM", "setting": "[2]; read-out: % inhibition hCB2 receptor, at 1 μM, specific binding of [3H]-WIN55212-2, CHO membranes", "result": "92.8 ± 8.7", "unit": "%"}, {"measurement": "inhibition at 10 µM", "setting": "[2]; read-out: % inhibition hCB2 receptor, at 10 μM, specific binding of [3H]-WIN55212-2", "result": "92.8 ± 8.7", "unit": "%"}, {"measurement": "% Activation Average", "setting": "hCB2 receptor; CB2 Functional Activity", "result": 68.81, "unit": "%"}, {"measurement": "Compound Activity", "setting": "hCB2 receptor; CB2 Functional Activity", "result": "Agonist"}, {"measurement": "EC50", "setting": "hCB2 receptor; CB2 Functional Activity, read-out: EC50 (nM) for GTP Binding", "result": 63.4, "unit": "nM"}, {"measurement": "ratio EC50(CB1)/EC50(CB2)", "setting": "hCB2 receptor; CB2 receptor selectivity, [35S]GTP-γ-S", "result": 14}, {"measurement": "EC50", "setting": "hCB2 receptor; Table 7, mean of two determinations, read-out: [35S]GTP-γ-S (hCB2) EC50 (nM ± SEM)", "result": "63.4 ± 1.3", "unit": "nM"}, {"measurement": "Emax", "setting": "hCB2 receptor; [3]", "result": 68.8, "unit": "%"}, {"measurement": "EC50", "setting": "hCB2 receptor; Table 9, mean of two determinations, read-out: [35S]GTP-γ-S hCB2 EC50 (nM ± SEM)", "result": "63.4 ± 1.3", "unit": "nM"}, {"measurement": "Emax", "setting": "hCB2 receptor; [4]", "result": 68.8, "unit": "%"}, {"measurement": "times less potent compared to the reference compound CP55,940", "setting": "hCB2 receptor; functional activity, [35S]GTP-γ-S", "result": "seven"}, {"measurement": "exploratory behavior in the open field (distance traveled, ambulatory time, vertical activity, zone entries)", "setting": "exploratory behavior", "result": "No significant differences; also recorded: did not decrease the exploratory behavior"}, {"measurement": "% Activation Average", "setting": "CB1; CB1 Functional Activity", "result": 59.65, "unit": "%"}, {"measurement": "Compound Activity", "setting": "CB1; CB1 Functional Activity", "result": "Agonist"}, {"measurement": "EC50", "setting": "CB1; CB1 Functional Activity, read-out: EC50 (nM) for GTP Binding", "result": 867, "unit": "nM"}, {"measurement": "EC50", "setting": "CB1; Table 7, mean of two determinations, read-out: [35S]GTP-γ-S (hCB1) EC50 (nM ± SEM)", "result": "867 ± 1.1", "unit": "nM"}, {"measurement": "Emax", "setting": "CB1; [3]", "result": 59.7, "unit": "%"}, {"measurement": "EC50", "setting": "CB1; Table 9, mean of two determinations, read-out: [35S]GTP-γ-S hCB1 EC50 (nM ± SEM)", "result": "867 ± 1.1", "unit": "nM"}, {"measurement": "Emax", "setting": "CB1; [4]", "result": 59.7, "unit": "%"}]}]}
